≈ marks a conversion by molar mass, not a printed value. Like-named read-outs stand apart in the source and are kept apart here. Values belong to the compound of their own block, whether it stands above or below them.
Assays:
Helicobacter pylori = assay: MIC against Helicobacter pylori by two fold serial dilution in growth medium; assay type: cell-based; conditions: for Mean ratio pH 4:pH 7, first value: Strain 1 (Chloride: against first pH 7 value); for MIC, Strain 1 (pH 7): pH 7 (first value where two are given); for Mean ratio pH 4:pH 7, second value: Strain 2 (Chloride: Strain 1 against second pH 7 value); for Average Selectivity Ratio: (Sum of MIC values against all bacteria except H. pylori ÷ No. of MIC values) ÷ MIC value for H. pylori; for effect on the MIC of cobalt against H. pylori: weight ratio of 1:5 (cobalt:cysteine and/or methionine)
Procedure: Solutions of metal salts were prepared by dilution of the metal salt, optionally together with the ligand, in ultra-high-purity water. The pH values were adjusted to 7 with concentrated sodium hydroxide. The solutions were γ irradiated for 20 to 30 minutes for sterilisation, and then diluted ten fold in the bacterial growth medium to be used.
A gradient of concentration was obtained by two fold serial dilutions of the medium. The concentrations of metals were analysed by inductively coupled plasma spectrometry. Each dilution was inoculated with the different bacteria to be tested, by multi-point inoculating on the agar media, or suspending in the broth media.
The presence or absence of bacterial growth was reported within the concentration gradient and the minimum concentration of complex in the medium that inhibits totally the bacterial growth (MIC) was determined. The growth on an agar plate was detected by the presence of colonies, and by turbidity in the broth media. The bacteria were identified by the Gram morphology test. Helicobacter pylori growth was also confirmed by biochemical test on the catalase, urease and oxidase activity.

Klebsiella = assay: MIC against Klebsiella; assay type: cell-based; conditions: Table 4
Pseudomonas aeruginosa [1] = conditions: extrapolated from survival rates; protein broth then phosphate-buffered saline; Zhao et al 1998; cited from earlier work
Echerichia coli = assay: MIC against Echerichia coli; assay type: cell-based; conditions: Table 4
Pseudomonas aeruginosa [2] = assay: MIC against Pseudomonas aeruginosa; assay type: cell-based; conditions: Table 4
Staphylococcus aureus = assay: MIC against Staphylococcus aureus; assay type: cell-based; conditions: Table 4
[3] = test system: Staphylococcus (aureus or Oxford Staph); conditions: extrapolated from survival rates; protein broth then phosphate-buffered saline; Zhao et al 1998; cited from earlier work
E. coli = conditions: extrapolated from survival rates; protein broth then phosphate-buffered saline; Zhao et al 1998; cited from earlier work
Enterococcus faecalis = assay: MIC against Enterococcus faecalis; assay type: cell-based; conditions: Table 4
H. pylori [4] = conditions: H. pylori; cited from earlier work
H. pylori [5] = conditions: cited from earlier work
[6] = STH broth, NCTC 11637 and seven clinical isolates
[7] = pH 4-7: pH of the media changes during the experiment from acidic start

Compound: O=[N+]([O-])[O-].O=[N+]([O-])[O-].O=[N+]([O-])[O-].[Bi+3] [Bi^3+ (bismuth nitrate), bismuth nitrate, reference compound]
MIC (Helicobacter pylori; [6]): 4 to 8 µg/mL
action against H. pylori (in words) (Helicobacter pylori; Table 2 metals compared with cobalt (II)): active, but only at much higher levels than cobalt (II)

Compound: CC(=O)[O-].CC(=O)[O-].[Co+2] [Co acetate]
Mean ratio pH 4:pH 7, first value (Helicobacter pylori): 0.054
MIC, Strain 1 (pH 4) (Helicobacter pylori): 0.11
MIC, Strain 1 (pH 7) (Helicobacter pylori): 2.03
Mean ratio pH 4:pH 7, second value (Helicobacter pylori): 0.11
MIC, Strain 2 (pH 4) (Helicobacter pylori): 0.11
MIC, Strain 2 (pH 7) (Helicobacter pylori; pH 7): 1.01
MIC, pH 4-7 (Helicobacter pylori; [7]): 0.125 mg/l
MIC, pH 7 (Helicobacter pylori; pH 7): 0.5-2 mg/l

MIC (Helicobacter pylori; Helicobacter pylori, pH 7, read-out: MIC, pH 7): 1 to 4 µg/mL
MIC (Helicobacter pylori; Helicobacter pylori, pH 4-7: pH of the media changes during the experiment from acidic start, read-out: MIC, pH 4-7): 0.06 to 0.125 µg/mL
MIC, Strain 1 (pH 4) (Helicobacter pylori): <0.04
MIC, Strain 1 (pH 7) (Helicobacter pylori): 1.12
MIC, Strain 2 (pH 4) (Helicobacter pylori): 0.09
MIC, Strain 2 (pH 7) (Helicobacter pylori; pH 7): 4.49
Compound: Br [Co bromide]
Mean ratio pH 4:pH 7, first value (Helicobacter pylori): 0.036
Mean ratio pH 4:pH 7, second value (Helicobacter pylori): 0.02

Compound: O=C([O-])[O-].[Co+2] [Co carbonate]
Mean ratio pH 4:pH 7, first value (Helicobacter pylori): 0.048
MIC, Strain 1 (pH 4) (Helicobacter pylori): 0.09
MIC, Strain 1 (pH 7) (Helicobacter pylori): 1.09
Mean ratio pH 4:pH 7, second value (Helicobacter pylori): 0.018
MIC, Strain 2 (pH 4) (Helicobacter pylori): <0.02
MIC, Strain 2 (pH 7) (Helicobacter pylori; pH 7): 1.09
MIC, pH 4-7 (Helicobacter pylori; [7]): 0.03-0.125 mg/l
MIC, pH 7 (Helicobacter pylori; pH 7): 0.125-1 mg/l

Compound: [OH][Co][OH] [Co hydroxide]
Mean ratio pH 4:pH 7, first value (Helicobacter pylori): 0.058
MIC, Strain 1 (pH 4) (Helicobacter pylori): 0.11
MIC, Strain 1 (pH 7) (Helicobacter pylori): 1.9
Mean ratio pH 4:pH 7, second value (Helicobacter pylori): 0.029
MIC, Strain 2 (pH 4) (Helicobacter pylori): 0.11
MIC, Strain 2 (pH 7) (Helicobacter pylori; pH 7): 3.80
MIC, pH 4-7 (Helicobacter pylori; [7]): 0.125 mg/l
MIC, pH 7 (Helicobacter pylori; pH 7): 2-4 mg/l

Compound: O=[N+]([O-])[O-].O=[N+]([O-])[O-].[Co+2] [Co nitrate]
Mean ratio pH 4:pH 7, first value (Helicobacter pylori): 0.07
MIC, Strain 1 (pH 4) (Helicobacter pylori): 0.05
MIC, Strain 1 (pH 7) (Helicobacter pylori): 0.69
Mean ratio pH 4:pH 7, second value (Helicobacter pylori): 0.08
MIC, Strain 2 (pH 4) (Helicobacter pylori): 0.055
MIC, Strain 2 (pH 7) (Helicobacter pylori; pH 7): >0.69
MIC, pH 4-7 (Helicobacter pylori; [7]): 0.06 mg/l
MIC, pH 7 (Helicobacter pylori; pH 7): 1 mg/l

Compound: O=P([O-])([O-])[O-].O=P([O-])([O-])[O-].[Co+2].[Co+2].[Co+2] [Co phosphate]
MIC, pH 4-7 (Helicobacter pylori; [7]): 4 mg/l
MIC, pH 7 (Helicobacter pylori; pH 7): 0.8 mg/l

Compound: O=[N+]([O-])[O-].O=[N+]([O-])[O-].O=[N+]([O-])[O-].[Cr+3] [Cr^2+ (chromium nitrate), chromium nitrate, reference compound]
MIC (Helicobacter pylori; [6]): >32 µg/mL

Compound: [Cl][Cu][Cl] [Cu^2+]
MIC, Klebsiella (Klebsiella): > 32 µg/mL
MIC, Pseudomonas aeruginosa (footnote a) (Pseudomonas aeruginosa [1]): 1.75^a
MIC, E. coli (Echerichia coli): > 32 µg/mL
MIC, Pseudomonas aeruginosa (Pseudomonas aeruginosa [2]): > 32 µg/mL
MIC, Staphylococcus (aureus or Oxford Staph) (Staphylococcus aureus): > 32 µg/mL
MIC, Staphylococcus (aureus or Oxford Staph) (footnote a) [3]: 17.15^a
Average Selectivity Ratio (Helicobacter pylori): 1.02
MIC (Helicobacter pylori; [6]): 16 to 32 µg/mL
MIC, H. pylori (Helicobacter pylori; Table 4): 32
MIC, H. pylori, first of two values (Helicobacter pylori; Table 4): 16
MIC, H. pylori (Helicobacter pylori; Table 4, main value): 24 µg/mL
MIC, E. coli (footnote a) (E. coli): 17.15^a
MIC, Ent faecalis (Enterococcus faecalis): > 32 µg/mL

Compound: O=C(O)CN(CCN(CC(=O)O)CC(=O)O)CC(=O)O [EDTA, reference compound]
effect of added ligand on the MIC / action of cobalt against H. pylori (Helicobacter pylori; ligand added to cobalt): inhibited the action of cobalt against H. pylori

Compound: [Cl][Fe]([Cl])[Cl] [Fe^3+]
MIC, Klebsiella (Klebsiella): > 32 µg/mL
MIC, E. coli (Echerichia coli): > 32 µg/mL
MIC, Pseudomonas aeruginosa (Pseudomonas aeruginosa [2]): > 32 µg/mL
MIC, Staphylococcus (aureus or Oxford Staph) (Staphylococcus aureus): > 32 µg/mL
Average Selectivity Ratio (Helicobacter pylori): 1.00
MIC (Helicobacter pylori; [6]): >32 µg/mL
MIC, H. pylori (Helicobacter pylori; Table 4): >32/>32
MIC, H. pylori, first of two values (Helicobacter pylori; Table 4): >32/>32
MIC, Ent faecalis (Enterococcus faecalis): > 32 µg/mL

Compound: [Cl][Mn][Cl] [Mn^2+]
MIC, Klebsiella (Klebsiella): > 32 µg/mL
MIC, E. coli (Echerichia coli): > 32 µg/mL
MIC, Pseudomonas aeruginosa (Pseudomonas aeruginosa [2]): > 32 µg/mL
MIC, Staphylococcus (aureus or Oxford Staph) (Staphylococcus aureus): > 32 µg/mL
Average Selectivity Ratio (Helicobacter pylori): 1.00
MIC (Helicobacter pylori; [6]): >32 µg/mL
MIC, H. pylori (Helicobacter pylori; Table 4): >32/>32
MIC, H. pylori, first of two values (Helicobacter pylori; Table 4): >32/>32
MIC, Ent faecalis (Enterococcus faecalis): > 32 µg/mL

Compound: [O]=[Mo](=[O])=[O] [Mo^6+ (molybdenum oxide), molybdenum oxide, reference compound]
MIC (Helicobacter pylori; [6]): >32 µg/mL

Compound: [Ni+2] [Ni^2+]
MIC, Klebsiella (Klebsiella): > 32 µg/mL
MIC, Pseudomonas aeruginosa (footnote a) (Pseudomonas aeruginosa [1]): 22.89^a
MIC, E. coli (Echerichia coli): > 32 µg/mL
MIC, Pseudomonas aeruginosa (Pseudomonas aeruginosa [2]): > 32 µg/mL
MIC, Staphylococcus (aureus or Oxford Staph) (Staphylococcus aureus): > 32 µg/mL
MIC, Staphylococcus (aureus or Oxford Staph) (footnote a) [3]: 22.89^a
Average Selectivity Ratio (Helicobacter pylori): 0.89
MIC (Helicobacter pylori; [6]): >32 µg/mL
MIC, H. pylori (Helicobacter pylori; Table 4): >32/>32
MIC, H. pylori, first of two values (Helicobacter pylori; Table 4): >32/>32
MIC, E. coli (footnote a) (E. coli): 22.89^a
MIC, Ent faecalis (Enterococcus faecalis): > 32 µg/mL

Compound: O=S(=O)([O-])[O-].[O]=[V+2] [V^4+ (vanadyl sulfate), vanadyl sulfate, reference compound]
MIC (Helicobacter pylori; [6]): >32 µg/mL

Compound: [Cl-].[Cl-].[Zn+2] [Zn^2+]
MIC, Klebsiella (Klebsiella): > 32 µg/mL
MIC, Pseudomonas aeruginosa (footnote a) (Pseudomonas aeruginosa [1]): 1.7^a
MIC, E. coli (Echerichia coli): > 32 µg/mL
MIC, Pseudomonas aeruginosa (Pseudomonas aeruginosa [2]): > 32 µg/mL
MIC, Staphylococcus (aureus or Oxford Staph) (Staphylococcus aureus): > 32 µg/mL
MIC, Staphylococcus (aureus or Oxford Staph) (footnote a) [3]: 17^a
Average Selectivity Ratio (Helicobacter pylori): 0.76
MIC (Helicobacter pylori; [6]): >32 µg/mL
MIC, H. pylori (Helicobacter pylori; Table 4): >32/32
MIC, H. pylori, first of two values (Helicobacter pylori; Table 4): >32/32
MIC, E. coli (footnote a) (E. coli): 17^a
MIC, Ent faecalis (Enterococcus faecalis): > 32 µg/mL

Compound: CC[C@H]1OC(=O)[C@H](C)[C@@H](O[C@H]2C[C@@](C)(OC)[C@@H](O)[C@H](C)O2)[C@H](C)[C@@H](O[C@@H]2O[C@H](C)C[C@H](N(C)C)[C@H]2O)[C@](C)(OC)C[C@@H](C)C(=O)[C@H](C)[C@@H](O)[C@]1(C)O [clarithromycin]
MIC50 (H. pylori [4]): 0.03 µg/mL (≈ 0.0401 µM)
eradication of infections (H. pylori [5]; in combination with metronidazole): about 70%
eradication of infections (H. pylori [5]; monotherapy): about 34%
eradication of infections (H. pylori [5]; triple therapy with a PPI and either metronidazole or amoxycillin): 85-95%

Compound: N[C@@H](CS)C(=O)O [cysteine, reference compound]
effect on the MIC of cobalt against H. pylori (Helicobacter pylori): not to affect the MIC of cobalt against H. pylori

Compound: CSCC[C@H](N)C(=O)O [methionine, reference compound]
effect on the MIC of cobalt against H. pylori (Helicobacter pylori): not to affect the MIC of cobalt against H. pylori

Compound: Vitamin B12 [reference compound]
activity against H. pylori (Helicobacter pylori; strongly bound cobalt complex): greatly reduced activity
